According to US8507509B2, “Saturated and insaturated bi- or tricyclic aryloxyacetamine derivatives and their use as fungicides” (Syngenta Crop Protection LLC, priority 2007, dated 2013):

What was measured:
[1] = tested on: Erysiphe graminis f.sp. tritici; assay: Erysiphe graminis f.sp. tritici (wheat powdery mildew), wheat leaf segment assay, preventive; type: in vivo; details: Blumeria graminis, foliar, 96 h; 200 ppm; wheat leaf segments; assessed four days after inoculation; read-out: control of fungal infection, Etysiphe graminis f.sp. tritici
Plasmopara viticola = Plasmopara viticola (downy mildew of grapevine), grapevine leaf disk assay, preventive; type: in vivo; details: foliar, 168 h, 200 ppm, grapevine leaf disks, assessed seven days after inoculation, read-out: control of fungal infection, Plasmopara viticola
Septoria tritici = Septoria tritici (leaf blotch), liquid culture growth inhibition in nutrient broth; type: cell-based; details: Zymoseptoria tritici; 200 ppm; PDB broth, 24 C; inhibition of growth determined photometrically after 72 hrs; read-out: control of fungal infection, Septoria tritici
Septoria nodorum = Septoria nodorum (wheat glume blotch), wheat leaf segment assay, preventive; type: in vivo; details: Parastagonospora nodorum, foliar, 96 h; 200 ppm; wheat leaf segments; assessed four days after inoculation; read-out: control of fungal infection, Septoria nodorum
Pythium ultimum = Pythium ultimum (Damping off), liquid culture growth inhibition in potato dextrose broth; type: cell-based; details: Globisporangium ultimum; 20 ppm; potato dextrose broth, 24° C.; inhibition of growth determined photometrically after 48 hours; read-out: control of fungal infection, Pythium ultimum
Phytophthora infestans = assay: whole plant or invertebrate; type: in vivo; details: in Solanum lycopersicum, foliar, 96 h, read-out: control of fungal infection, Phytophthora infestans
Fusarium culmorum = Fusarium culmorum (root rot), liquid culture growth inhibition in nutrient broth; type: cell-based; details: PDB broth, 24 C, inhibition of growth determined photometrically after 48 hrs, read-out: control of fungal infection, Fusarium culmorum
Protocol: Mycelia fragments or conidia suspensions of a fungus, prepared either freshly from liquid cultures of the fungus or from cryogenic storage, are directly mixed into nutrient broth. DMSO solutions of the test compound (max. 10 mg/ml) is diluted with 0.025% Tween20 by factor 50 and 10 μl of this solution is pipetted into a microtiter plate (96-well format) and the nutrient broth containing the fungal spores/mycelia fragments is then added to give an end concentration of the tested compound. The test plates are incubated at 24° C. and 96% rH in the dark. The inhibition of fungal growth is determined photometrically after 2-6 days and antifungal activity is calculated.
Fusarium culmorum (root rot): Conidia of the fungus from cryogenic storage were directly mixed into nutrient broth (PDB potato dextrose broth). After placing a (DMSO) solution of the test compounds into a microtiter plate (96-well format) the nutrient broth containing the fungal spores was added. The test plates were incubated at 24 C and the inhibition of growth was determined photometrically after 48 hrs.

COCC(=O)ON=CCC(C)(C)NC(=O)C(Oc1cc(C)c2ncc(I)cc2c1)SC (centres unmarked) [Compound No. 103, 2-(3-Iodo-8-methyl-quinolin-6-yloxy)-N-(3-methoxyacetoxyimino-1,1-dimethyl-propyl)-2-methylsulfanyl-acetamide]
≥ 60%: pest or weed control at 200 ppm [1] | pest or weed control at 200 ppm (Plasmopara viticola) | inhibition of growth at 200 ppm (Septoria tritici) | pest or weed control at 200 ppm (Septoria nodorum)

C#Cc1cnc2c(C)cc(OC(CC)C(=O)NC(C)(C)C=NOC)cc2c1 (centres unmarked) [Compound No. 132, 2-(3-Ethynyl-8-methyl-quinolin-6-yloxy)-N-(2-methoxyimino-1,1-dimethyl-ethyl)-butyramide]
≥ 60%: pest or weed control at 200 ppm [1] | pest or weed control at 200 ppm (Plasmopara viticola) | inhibition of growth at 20 ppm (Pythium ultimum) | inhibition of growth at 200 ppm (Septoria tritici) | pest or weed control at 200 ppm (Phytophthora infestans) | pest or weed control at 200 ppm (Septoria nodorum)

C#Cc1cnc2ccc(OC(CC)C(=O)NC(C)(C)C=NOC)cc2c1 (centres unmarked) [Compound No. 131, 2-(3-Ethynyl-quinolin-6-yloxy)-N-(2-methoxyimino-1,1-dimethyl-ethyl)-butyramide]
≥ 60%: pest or weed control at 200 ppm [1] | pest or weed control at 200 ppm (Plasmopara viticola) | inhibition of growth at 20 ppm (Pythium ultimum) | inhibition of growth at 200 ppm (Septoria tritici) | pest or weed control at 200 ppm (Phytophthora infestans) | pest or weed control at 200 ppm (Septoria nodorum)

CCON=CC(C)(C)NC(=O)C(Oc1cc(C)c2ncc(I)cc2c1)SC (centres unmarked) [Compound No. 42, N-(2-Ethoxyimino-1,1-dimethyl-ethyl)-2-(3-iodo-8-methyl-quinolin-6-yloxy)-2-methylsulfanyl-acetamide]
≥ 60%: pest or weed control at 200 ppm (Plasmopara viticola) | pest or weed control at 200 ppm (Phytophthora infestans) | pest or weed control at 200 ppm (Septoria nodorum)

CON=CCC(C)NC(=O)C(Oc1cc(C)c2ncc(I)cc2c1)SC (centres unmarked) [Compound No. 105, 2-(3-Iodo-8-methyl-quinolin-6-yloxy)-N-(3-methoxyimino-1-methyl-propyl)-2-methylsulfanyl-acetamide]
≥ 60%: pest or weed control at 200 ppm [1] | inhibition of growth at 200 ppm (Fusarium culmorum) | inhibition of growth at 20 ppm (Pythium ultimum) | inhibition of growth at 200 ppm (Septoria tritici)

C#CCON=CC(C)(C)NC(=O)C(Oc1ccc2ncc(Br)cc2c1)SC (centres unmarked) [Compound No. 17, 2-(3-Bromo-quinolin-6-yloxy)-N-(1,1-dimethyl-2-prop-2-ynyloxyimino-ethyl)-2-methylsulfanyl-acetamide]
≥ 60%: pest or weed control at 200 ppm [1] | pest or weed control at 200 ppm (Plasmopara viticola) | inhibition of growth at 20 ppm (Pythium ultimum) | inhibition of growth at 200 ppm (Septoria tritici) | pest or weed control at 200 ppm (Phytophthora infestans) | pest or weed control at 200 ppm (Septoria nodorum)

C=CCON=CC(C)(C)NC(=O)C(Oc1ccc2ncc(I)cc2c1)SC (centres unmarked) [Compound No. 52, N-(2-Allyloxyimino-1,1-dimethyl-ethyl)-2-(3-iodo-quinolin-6-yloxy)-2-methylsulfanyl-acetamide]
≥ 60%: pest or weed control at 200 ppm (Plasmopara viticola) | inhibition of growth at 200 ppm (Fusarium culmorum) | inhibition of growth at 20 ppm (Pythium ultimum) | pest or weed control at 200 ppm (Phytophthora infestans)

CON=CC(C)(C)NC(=O)C(Oc1cc(Br)c2ncc(Br)cc2c1)SC (centres unmarked) [Compound No. 34, 2-(3,8-Dibromo-quinolin-6-yloxy)-N-(2-methoxyimino-1,1-dimethyl-ethyl)-2-methylsulfanyl-acetamide]
≥ 60%: inhibition of growth at 200 ppm (Septoria tritici) | pest or weed control at 200 ppm (Septoria nodorum)

CON=C(Cc1ccsc1)C(C)(C)NC(=O)C(Oc1ccc2ncc(Br)cc2c1)SC (centres unmarked) [Compound No. 124, 2-(3-Bromo-quinolin-6-yloxy)-N-{2-[(E or Z)-methoxyimino]-1,1-dimethyl-3-thiophen-3-yl-propyl}-2-methylsulfanyl-acetamide]
≥ 60%: inhibition of growth at 200 ppm (Septoria tritici) | pest or weed control at 200 ppm (Septoria nodorum)

CON=C(c1ccccc1)C(C)(C)NC(=O)C(Oc1ccc2ncc(Br)cc2c1)SC (centres unmarked) [Compound No. 130, 2-(3-Bromo-quinolin-6-yloxy)-N-{2-[(E or Z)-methoxyimino]-1,1-dimethyl-2-phenyl-ethyl}-2-methylsulfanyl-acetamide]
≥ 60%: pest or weed control at 200 ppm [1] | pest or weed control at 200 ppm (Plasmopara viticola) | inhibition of growth at 20 ppm (Pythium ultimum) | inhibition of growth at 200 ppm (Septoria tritici) | pest or weed control at 200 ppm (Phytophthora infestans) | pest or weed control at 200 ppm (Septoria nodorum)

COCC(C)(C=NOC)NC(=O)C(Oc1cc(C)c2ncc(Br)cc2c1)SC (centres unmarked) [Compound No. 63, 2-(3-Bromo-8-methyl-quinolin-6-yloxy)-N-(2-methoxyimino-1-methoxymethyl-1-methyl-ethyl)-2-methylsulfanyl-acetamide]
≥ 60%: pest or weed control at 200 ppm [1] | pest or weed control at 200 ppm (Plasmopara viticola) | inhibition of growth at 200 ppm (Septoria tritici) | pest or weed control at 200 ppm (Phytophthora infestans) | pest or weed control at 200 ppm (Septoria nodorum)

C#Cc1cnc2ccc(OC(SC)C(=O)NC(C)(C)C=NOC)cc2c1 (centres unmarked) [Compound No. 38, 2-(3-Ethynyl-quinolin-6-yloxy)-N-(2-methoxyimino-1,1-dimethyl-ethyl)-2-methylsulfanyl-acetamide]
≥ 60%: pest or weed control at 200 ppm [1] | pest or weed control at 200 ppm (Plasmopara viticola) | inhibition of growth at 200 ppm (Septoria tritici) | pest or weed control at 200 ppm (Phytophthora infestans) | pest or weed control at 200 ppm (Septoria nodorum)

CSC(Oc1ccc2ncc(I)cc2c1)C(=O)NC(C)(C)C=NO (centres unmarked) [Compound No. 153, N-(2-Hydroxyimino-1,1-dimethyl-ethyl)-2-(3-iodo-quinolin-6-yloxy)-2-methylsulfanyl-acetamide]
≥ 60%: pest or weed control at 200 ppm [1] | pest or weed control at 200 ppm (Plasmopara viticola) | inhibition of growth at 200 ppm (Fusarium culmorum) | inhibition of growth at 20 ppm (Pythium ultimum) | inhibition of growth at 200 ppm (Septoria tritici) | pest or weed control at 200 ppm (Phytophthora infestans)

CCC(Oc1cc2cc(Br)cnc2cc1F)C(=O)NC(C)(C)C=NOC (centres unmarked) [Compound No. 154, 2-(3-Bromo-7-fluoro-quinolin-6-yloxy)-N-(2-methoxyimino-1,1-dimethyl-ethyl)-butyramide]
≥ 60%: pest or weed control at 200 ppm [1] | pest or weed control at 200 ppm (Plasmopara viticola) | inhibition of growth at 200 ppm (Septoria tritici) | pest or weed control at 200 ppm (Phytophthora infestans) | pest or weed control at 200 ppm (Septoria nodorum)

CON=CCC(C)NC(=O)C(Oc1ccc2ncc(I)cc2c1)SC (centres unmarked) [Compound No. 48, 2-(3-Iodo-quinolin-6-yloxy)-N-(3-methoxyimino-1-methyl-propyl)-2-methylsulfanyl-acetamide]
≥ 60%: pest or weed control at 200 ppm [1] | inhibition of growth at 200 ppm (Fusarium culmorum) | inhibition of growth at 200 ppm (Septoria tritici) | pest or weed control at 200 ppm (Septoria nodorum)

CCC(Oc1ccc2ncc(Br)cc2c1)C(=O)NC(C)(C)C=NOCCF (centres unmarked) [Compound No. 151, 2-(3-Bromo-quinolin-6-yloxy)-N-[2-(2-fluoro-ethoxyimino)-1,1-dimethyl-ethyl]-butyramide]
≥ 60%: pest or weed control at 200 ppm [1] | pest or weed control at 200 ppm (Plasmopara viticola) | inhibition of growth at 20 ppm (Pythium ultimum) | inhibition of growth at 200 ppm (Septoria tritici) | pest or weed control at 200 ppm (Phytophthora infestans)

CON=CC(C)(C)NC(=O)C(Oc1cc(C)c2ncc(Br)cc2c1)SC (centres unmarked) [Compound No. 26, 2-(3-Bromo-8-methyl-quinolin-6-yloxy)-N-(2-methoxyimino-1,1-dimethyl-ethyl)-2-methylsulfanyl-acetamide]
≥ 60%: pest or weed control at 200 ppm [1] | inhibition of growth at 200 ppm (Fusarium culmorum) | inhibition of growth at 200 ppm (Septoria tritici) | pest or weed control at 200 ppm (Phytophthora infestans) | pest or weed control at 200 ppm (Septoria nodorum)

CON=CCC(C)(C)NC(=O)C(Oc1ccc2ncc(I)cc2c1)SC (centres unmarked) [Compound No. 46, 2-(3-Iodo-quinolin-6-yloxy)-N-(3-methoxyimino-1,1-dimethyl-propyl)-2-methylsulfanyl-acetamide]
≥ 60%: pest or weed control at 200 ppm [1] | pest or weed control at 200 ppm (Plasmopara viticola) | inhibition of growth at 200 ppm (Septoria tritici) | pest or weed control at 200 ppm (Phytophthora infestans) | pest or weed control at 200 ppm (Septoria nodorum)
